Test results taken from PubChem BioAssay AID248 (DTP/NCI, 2004).
Where “and” joins values, the source holds several entries; their conditions need not be identical. Equal values may be shown once. Inconclusive results and toxic doses are left out. Rule as the data show it: active = T/C of 150% or more; inactive = T/C below 125%.

System: L1210 leukemia ip in BDF1 mice, survival T/C
Experiment: NCI In Vivo Anticancer Drug Screen. Data for tumor model L1210 Leukemia (intraperitoneal) in B6D2F1 (BDF1) mice
Conditions: endpoint: mean survival time, higher = longer survival
Summary of the method: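 Transplantable tumor model; survival measured in treated vs vehicle control mice. Value = treated/control.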

[1] = dose: 100.0 mg/kg/injection, schedule: Q01DX009 (ip), vehicle: Klucel (hydroxypropylcellulose) (HPC)
[2] = dose: 200.0 mg/kg/injection, schedule: Q01DX009 (ip), vehicle: Klucel (hydroxypropylcellulose) (HPC)

Measured: T/C

Nc1cccc(NC=O)c1
inactive: dose: 25.0 mg/kg/injection, schedule: Q01DX009 (ip), vehicle: saline with Tween-80 102 % of control | dose: 50.0 mg/kg/injection, schedule: Q01DX009 (ip), vehicle: saline with Tween-80 104 % of control

NCCCCC(N)C(=O)Nc1ccc(Nc2ccc(NC(=O)C(N)CCCCN)cc2)cc1 (centres undefined)
inactive: dose: 5.0 mg/kg/injection, schedule: Q01DX001 (ip), vehicle: saline 92 % of control | dose: 10.0 mg/kg/injection, schedule: Q01DX001 (ip), vehicle: saline 90 % of control | dose: 20.0 mg/kg/injection, schedule: Q01DX001 (ip), vehicle: saline 92 % of control | dose: 40.0 mg/kg/injection, schedule: Q01DX001 (ip), vehicle: saline 93 % of control | dose: 80.0 mg/kg/injection, schedule: Q01DX001 (ip), vehicle: saline 93 % of control

Cc1cc(C)nc(N(C)CC(=O)O)n1
inactive: dose: 50.0 mg/kg/injection, schedule: Q04DX002 (ip), vehicle: saline 100 % of control | dose: 100.0 mg/kg/injection, schedule: Q04DX002 (ip), vehicle: saline 95 % of control | dose: 200.0 mg/kg/injection, schedule: Q04DX002 (ip), vehicle: saline 103 % of control

O=Cc1cc2ccccc2[nH]1
inactive: dose: 100.0 mg/kg/injection, schedule: Q04DX002 (ip), vehicle: saline with Tween-80 105 % of control | dose: 200.0 mg/kg/injection, schedule: Q04DX002 (ip), vehicle: saline with Tween-80 102 % of control | dose: 400.0 mg/kg/injection, schedule: Q04DX002 (ip), vehicle: saline with Tween-80 102 % of control

Cc1ccc(NC(=O)OCCOc2ccc([N+](=O)[O-])cc2)c([N+](=O)[O-])c1
inactive: dose: 50.0 mg/kg/injection, schedule: Q01DX009 (ip), vehicle: Klucel (hydroxypropylcellulose) (HPC) 102 % of control | [1] 91 % of control | dose: 100.0 mg/kg/injection, schedule: Q04DX003 (ip), vehicle: Klucel (hydroxypropylcellulose) (HPC) 97 % of control | [2] 91 % of control | dose: 200.0 mg/kg/injection, schedule: Q04DX003 (ip), vehicle: Klucel (hydroxypropylcellulose) (HPC) 102 % of control | dose: 400.0 mg/kg/injection, schedule: Q04DX003 (ip), vehicle: Klucel (hydroxypropylcellulose) (HPC) 95 % of control

Cc1ccc([N+](=O)[O-])cc1NC(=O)Nc1ccc([N+](=O)[O-])cc1
inactive: [1] 90 % of control | [2] 90 % of control | dose: 400.0 mg/kg/injection, schedule: Q01DX009 (ip), vehicle: Klucel (hydroxypropylcellulose) (HPC) 98 % of control

CC(C)C(CCN1CCCCC1)(CNC1=NCCN1)c1cccc2ccccc12 (centres undefined)
inactive: dose: 3.12 mg/kg/injection, schedule: Q04DX002 (ip), vehicle: Klucel (hydroxypropylcellulose) (HPC) 103 % of control | dose: 5.0 mg/kg/injection, schedule: Q01DX009 (ip), vehicle: Klucel (hydroxypropylcellulose) (HPC) 99 % of control | dose: 6.25 mg/kg/injection, schedule: Q04DX002 (ip), vehicle: Klucel (hydroxypropylcellulose) (HPC) 100 % of control | dose: 10.0 mg/kg/injection, schedule: Q01DX009 (ip), vehicle: Klucel (hydroxypropylcellulose) (HPC) 102 % of control | dose: 12.5 mg/kg/injection, schedule: Q04DX002 (ip), vehicle: Klucel (hydroxypropylcellulose) (HPC) 103 % of control | dose: 12.5 mg/kg/injection, schedule: Q04DX003 (ip), vehicle: Klucel (hydroxypropylcellulose) (HPC) 92 % of control | dose: 20.0 mg/kg/injection, schedule: Q01DX009 (ip), vehicle: Klucel (hydroxypropylcellulose) (HPC) 89 % of control | dose: 25.0 mg/kg/injection, schedule: Q04DX003 (ip), vehicle: Klucel (hydroxypropylcellulose) (HPC) 97 % of control | dose: 50.0 mg/kg/injection, schedule: Q04DX003 (ip), vehicle: Klucel (hydroxypropylcellulose) (HPC) 90 % of control

CC(=O)OC1CCC2(C)C(=CCC3C2CCC2(C)c4c(c(-c5ccccc5)nn4-c4ccccc4)CC32)C1 (centres undefined)
inactive: dose: 100.0 mg/kg/injection, schedule: Q04DX002 (ip), vehicle: Klucel (hydroxypropylcellulose) (HPC) 98 % of control | dose: 200.0 mg/kg/injection, schedule: Q04DX002 (ip), vehicle: Klucel (hydroxypropylcellulose) (HPC) 90 % of control | dose: 400.0 mg/kg/injection, schedule: Q04DX002 (ip), vehicle: Klucel (hydroxypropylcellulose) (HPC) 95 % of control

CCOC(=O)NP(=O)(Nc1ccc(C)cc1)Nc1ccc(C)cc1
inactive: dose: 50.0 mg/kg/injection, schedule: Q01DX001 (ip), vehicle: carboxymethylcellulose (CMC) 104 % of control | dose: 100.0 mg/kg/injection, schedule: Q01DX001 (ip), vehicle: carboxymethylcellulose (CMC) 98 % of control | dose: 200.0 mg/kg/injection, schedule: Q01DX001 (ip), vehicle: carboxymethylcellulose (CMC) 95 % of control | dose: 400.0 mg/kg/injection, schedule: Q01DX001 (ip), vehicle: carboxymethylcellulose (CMC) 98 % of control

Nc1cncc2ccccc12
inactive: dose: 25.0 mg/kg/injection, schedule: Q01DX009 (ip), vehicle: gum acacia 96 % of control | dose: 25.0 mg/kg/injection, schedule: Q04DX003 (ip), vehicle: gum acacia 100 % of control | dose: 50.0 mg/kg/injection, schedule: Q01DX009 (ip), vehicle: gum acacia 111 % of control | dose: 50.0 mg/kg/injection, schedule: Q04DX003 (ip), vehicle: gum acacia 98 % of control | dose: 100.0 mg/kg/injection, schedule: Q01DX009 (ip), vehicle: gum acacia 103 % of control | dose: 100.0 mg/kg/injection, schedule: Q04DX003 (ip), vehicle: gum acacia 102 % of control and 104 % of control
